Test systems include RXF 393; ACHN; Malme-3M; OVCAR-5; CCRF-CEM; KM12; SNB-75; UO-31; MOLT-4; SK-MEL-28; SN12C; NCI-H460; OVCAR-8; UACC-62; NCI-H23; HOP-62; TK-10; SW-620; RPMI-8226; SK-MEL-2.
Holding throughout (assay): NCI-60 cell line screen, 48 h

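Where inhibition never reached the appropriate level, the endpoint shown equals the highest concentration tested. Otherwise, values were interpolated linearly from a five-concentration, 48-hour dose response in 96-well plates. GI50: concentration for 50% inhibition of growth.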 Calls of active or inactive are those of the source. Rule as the data show it: active = GI50 up to about 1.1 µM and inactive = higher.

`O=C(O)c1ccccc1NC(c1ccccc1)c1ccc2cccnc2c1O` (stereo not given): the GI50 in the assay with RXF 393 was 10 µM (inactive); with ACHN, 9.18 µM (inactive); in the assay on Malme-3M it was 15.8 µM (inactive); with OVCAR-5, 8.97 µM (inactive); with CCRF-CEM, 1.93 µM (inactive); in the assay with KM12 it was 5.31 µM (inactive). The GI50 was 29.3 µM (inactive) in the assay on SNB-75; 6.12 µM (inactive) with UO-31; 4.06 µM (inactive) in the assay on MOLT-4; 6.41 µM (inactive) in the assay with SK-MEL-28; 6.58 µM (inactive) in the assay on SN12C; 4.03 µM (inactive) in the assay with NCI-H460. The GI50 in the assay with OVCAR-8 is 4.85 µM (inactive); in the assay with UACC-62, 11.6 µM (inactive); in the assay on NCI-H23, 12.6 µM (inactive); with HOP-62, 7.67 µM (inactive); with TK-10, 13.8 µM (inactive); in the assay on SW-620, 5.4 µM (inactive). In addition, the GI50 in the assay with RPMI-8226 was 3.04 µM (inactive); in the assay on SK-MEL-2, 25.2 µM (inactive).

As for `BrC1=C(Br)C2(SCCS2)[C@H]2C[C@@H]1c1ccccc12`, the GI50 was > 31.2 µM (inactive) in the assay with RXF 393; > 44 µM (inactive) in the assay on ACHN; 32.1 µM (inactive) in the assay on Malme-3M; > 100 µM (inactive) in the assay on OVCAR-5; 14.6 µM (inactive) in the assay on CCRF-CEM; 11.6 µM (inactive) in the assay on KM12. Further, the GI50 in the assay with SNB-75 was 16.2 µM (inactive); in the assay on UO-31, 29.4 µM (inactive); in the assay with MOLT-4 it was 13.9 µM (inactive); with SK-MEL-28 it was 97.9 µM (inactive); in the assay on SN12C it was > 91.2 µM (inactive); with NCI-H460, 33.5 µM (inactive). In addition, the GI50 with OVCAR-8 is > 100 µM (inactive); with UACC-62, 65.8 µM (inactive); in the assay with NCI-H23, 33.9 µM (inactive); with HOP-62, > 100 µM (inactive); with TK-10, > 100 µM (inactive); in the assay on SW-620 it was 35.3 µM (inactive). Besides, the results for the GI50 with RPMI-8226 and with SK-MEL-2 were 13.9 µM (inactive) and 41.2 µM (inactive), respectively.

As for `CN1C(=O)N/C(=C\c2ccc(S(=O)(=O)N/N=C/c3ccccc3)cc2)C1=O`, the GI50 with RXF 393 is 21.2 µM (inactive); in the assay with ACHN, 24.7 µM (inactive); in the assay with Malme-3M, 45.5 µM (inactive); in the assay with OVCAR-5 it was > 100 µM (inactive); in the assay on CCRF-CEM, 13.3 µM (inactive); with KM12, 15.7 µM (inactive). Also, the GI50 in the assay on SNB-75 is 48.3 µM (inactive); with UO-31, 15.5 µM (inactive); in the assay on MOLT-4 it was 14.5 µM (inactive); in the assay with SK-MEL-28, 38 µM (inactive); in the assay on SN12C, 66.2 µM (inactive); in the assay with NCI-H460, 10.5 µM (inactive). For the same molecule, the GI50 is 28.5 µM (inactive) in the assay on OVCAR-8; 28.9 µM (inactive) in the assay with UACC-62; 23.3 µM (inactive) in the assay on NCI-H23; 64.9 µM (inactive) with HOP-62; 31 µM (inactive) in the assay with TK-10; 91.6 µM (inactive) in the assay on SW-620. Moreover, the GI50 with RPMI-8226 is 18.6 µM (inactive); with SK-MEL-2, 15 µM (inactive).

For the molecule `CCN(CC)CCn1nc(N)c2nc3ccccc3nc21`, the GI50 with RXF 393, with ACHN, in the assay with Malme-3M, with OVCAR-5, with CCRF-CEM and with KM12 was > 100 µM (inactive) in each case. The GI50 in the assay with SNB-75 is 39.9 µM (inactive); in the assay on UO-31, > 100 µM (inactive); in the assay on MOLT-4, 63.7 µM (inactive); in the assay with SK-MEL-28 it was > 100 µM (inactive); with SN12C, > 100 µM (inactive); in the assay with NCI-H460, > 100 µM (inactive). For the same molecule, the GI50 is > 100 µM (inactive) in the assay on OVCAR-8; > 100 µM (inactive) with UACC-62; > 100 µM (inactive) with NCI-H23; > 100 µM (inactive) in the assay on HOP-62; > 100 µM (inactive) with TK-10; 93.5 µM (inactive) in the assay on SW-620. Further, the GI50 with RPMI-8226 and in the assay with SK-MEL-2 was > 100 µM (inactive) throughout.

`COc1ccc(C(SC2C(O)C(CO)OC2n2ccc(N)nc2=O)(c2ccccc2)c2ccc(OC)cc2)cc1` (stereo not given): the GI50 with RXF 393 is 17.5 µM (inactive); with ACHN, 31.3 µM (inactive); in the assay on Malme-3M it was 15 µM (inactive); in the assay with OVCAR-5, 20.1 µM (inactive); in the assay on CCRF-CEM, 20.2 µM (inactive); in the assay with KM12 it was 19.7 µM (inactive). Also, the GI50 is 16.5 µM (inactive) with SNB-75; 18.5 µM (inactive) with UO-31; 19.1 µM (inactive) in the assay with MOLT-4; 27.4 µM (inactive) in the assay with SK-MEL-28; 13.3 µM (inactive) in the assay on SN12C; 12.1 µM (inactive) in the assay with NCI-H460. In addition, the GI50 in the assay on OVCAR-8 is 28.1 µM (inactive); in the assay with UACC-62, 16.1 µM (inactive); in the assay on NCI-H23, 22.2 µM (inactive); in the assay on HOP-62 it was 17.8 µM (inactive); in the assay on TK-10 it was 26.8 µM (inactive); with SW-620 it was 23.6 µM (inactive). Besides, the figures for the GI50 in the assay on RPMI-8226 and in the assay on SK-MEL-2 were 17.5 µM (inactive) and 16.8 µM (inactive), respectively.

In the case of `Cn1cc(NC(=O)c2cc(NC(=O)CCCCCCCCC(=O)Nc3cc(C(=O)Nc4cc(C(=O)NCCC(N)N)n(C)c4)n(C)c3)cn2C)cc1C(=O)NCCC(=N)N`, the GI50 was 21.2 µM (inactive) with RXF 393; 17.9 µM (inactive) in the assay on ACHN; 0.935 µM (active) in the assay on Malme-3M; 21.4 µM (inactive) in the assay on OVCAR-5; 20.7 µM (inactive) with CCRF-CEM; 18.5 µM (inactive) with KM12. Moreover, the GI50 was 18.1 µM (inactive) in the assay on SNB-75; 28.2 µM (inactive) in the assay with UO-31; 19.9 µM (inactive) in the assay on MOLT-4; 12.1 µM (inactive) in the assay on SK-MEL-28; 23.8 µM (inactive) in the assay on SN12C; 20.1 µM (inactive) in the assay with NCI-H460. The GI50 with OVCAR-8 is 21.4 µM (inactive); in the assay with UACC-62, 20.7 µM (inactive); with NCI-H23, 33.9 µM (inactive); in the assay on HOP-62, 33 µM (inactive); with TK-10, 18.2 µM (inactive); in the assay with SW-620, 19.6 µM (inactive). The GI50 with RPMI-8226 was 5.35 µM (inactive); in the assay on SK-MEL-2, 19.2 µM (inactive).

On to `Cc1cccc(NC(=O)C(=O)C(C(=O)c2ccc3ccccc3c2)C2OC(=O)c3ccccc32)c1C` (stereo not given), for which the GI50 in the assay with RXF 393 is 2.39 µM (inactive); in the assay on ACHN, 28.1 µM (inactive); in the assay on Malme-3M it was 6.05 µM (inactive); in the assay on OVCAR-5, 21.7 µM (inactive); in the assay with CCRF-CEM, 8.02 µM (inactive); in the assay on KM12 it was 20.8 µM (inactive). Moreover, the GI50 in the assay on SNB-75 is 8.49 µM (inactive); in the assay on UO-31, 14.5 µM (inactive); in the assay on MOLT-4 it was 3.78 µM (inactive); in the assay on SK-MEL-28 it was 5.2 µM (inactive); in the assay on SN12C, 15.9 µM (inactive); in the assay on NCI-H460, 9.16 µM (inactive). The GI50 with OVCAR-8 is 10.3 µM (inactive); in the assay on UACC-62 it was 10.4 µM (inactive); in the assay with NCI-H23 it was 8.99 µM (inactive); in the assay on HOP-62, 10.7 µM (inactive); in the assay on TK-10 it was 23.3 µM (inactive); in the assay with SW-620, 7.98 µM (inactive). Also, the values for the GI50 with RPMI-8226 and in the assay on SK-MEL-2 were 6.98 µM (inactive) and 13.2 µM (inactive), respectively.

`O=C(O)C(=Cc1ccc(-c2ccc([N+](=O)[O-])cc2)o1)C(=O)O`: the GI50 in the assay with RXF 393, with ACHN, with Malme-3M, with OVCAR-5, in the assay with CCRF-CEM and with KM12 was > 100 µM (inactive) each time. Also, the GI50 with SNB-75, in the assay with UO-31, in the assay on MOLT-4, with SK-MEL-28, with SN12C and with NCI-H460 was > 100 µM (inactive) in each case. For the same molecule, the GI50 is > 100 µM (inactive) in the assay on OVCAR-8; > 100 µM (inactive) in the assay with UACC-62; > 100 µM (inactive) in the assay on NCI-H23; < 0.01 µM (active) in the assay with HOP-62; > 100 µM (inactive) in the assay with TK-10; > 100 µM (inactive) in the assay with SW-620. Further, the GI50 in the assay with RPMI-8226 and in the assay with SK-MEL-2 was > 100 µM (inactive) throughout.

Turning to `OCc1ccc(C2CC(c3ccco3)=NN2c2ccccc2)o1` (stereo not given), the GI50 in the assay on RXF 393, with ACHN, with Malme-3M, with OVCAR-5, with CCRF-CEM and in the assay with KM12 was > 100 µM (inactive) throughout. Moreover, the GI50 in the assay on SNB-75 was 20 µM (inactive); in the assay with UO-31 it was > 100 µM (inactive); in the assay on MOLT-4 it was > 100 µM (inactive); in the assay on SK-MEL-28, > 100 µM (inactive); in the assay with SN12C, > 100 µM (inactive); in the assay on NCI-H460, > 100 µM (inactive). The GI50 in the assay on OVCAR-8, in the assay on UACC-62, in the assay with NCI-H23, with HOP-62, in the assay on TK-10 and in the assay with SW-620 was > 100 µM (inactive) each time. In addition, the GI50 in the assay with RPMI-8226 and in the assay on SK-MEL-2 was > 100 µM (inactive) in each case.

As to `COc1cc2ccc3c4cc(OC)c(OC(C)C)cc4cnc3c2cc1OC`, the GI50 in the assay on RXF 393, with ACHN, with Malme-3M, in the assay with OVCAR-5, with CCRF-CEM and in the assay with KM12 was > 100 µM (inactive) in each case. Further, the GI50 with SNB-75, with UO-31, in the assay with MOLT-4, with SK-MEL-28, with SN12C and in the assay on NCI-H460 was > 100 µM (inactive) in each case. In addition, the GI50 with OVCAR-8, in the assay on UACC-62, in the assay on NCI-H23, with HOP-62, in the assay with TK-10 and with SW-620 was > 100 µM (inactive) throughout. Moreover, the GI50 in the assay on RPMI-8226 and with SK-MEL-2 was > 100 µM (inactive) in each case.

Values taken from ChEMBL document CHEMBL1201862, “PubChem BioAssay data set” (2004).
